Test results from PMC7179450, “Primary Human Hepatocytes, But not HepG2 or Balb/c 3T3 Cells, Efficiently Metabolize Salinomycin and Are Resistant to Its Cytotoxicity” (Molecules, 2020).
Where two headings read alike, the source gives them in different places.

Experiments:
[1] = tested on: primary human hepatocytes (PHH); assay: TPC assay (total protein content) in primary human hepatocytes; assay type: cell-based; conditions: Hepatocyte, mean ± SEM, n = 3, read-out: EC50 (effective concentration)
Description: Cryopreserved PHH were purchased from the Primacyt GmbH (Schwerin, Germany). Two different lots were chosen based on CYP activity. The donor was a person. The post-thaw viability was 94.6% for lot HH160531 (used in two repetitions) and 85.0% for lot HH130805. The initial cell viability was determined with the trypan blue exclusion test. The cells were thawed and purified using the Plating and Thawing Kit (Primacyt GmbH). Purified hepatocytes were resuspended in Hepatocyte Plating Medium (Primacyt GmbH) and seeded on collagen-coated 96-well plates at a density of 9 × 10^5 cell/mL and incubated at 37 °C with 5% CO2. After 6 h of incubation, the medium was removed and the cells were washed with PBS. Then Human Hepatocyte Maintenance Medium (HHMM) (Primacyt GmbH) with the studied drugs was added to hepatocytes (100 µL/well). The culture conditions were kept according to the manufacturer’s protocol.
The concentration ranges of the drugs were chosen according to their solubility and their plasma level. Each drug was dissolved in DMSO. […] The cytotoxicity was assessed after 24 and 48 h of exposure of cell lines or after 12 and 24 h exposure of PHH. […]
The assay was based on staining total cellular protein [14]. […] The absorbance was measured at 595 nm in a microplate reader using blank as a reference. Cytotoxicity was expressed as a percentage of the negative control (0.1% or 0.2% DMSO).

[2] = tested on: HepG2 cells; assay: NRU assay in HepG2; assay type: cell-based, human; conditions: for EC50: Homo sapiens, read-out: EC50 (effective concentration)
Description: (§1) The HepG2 cell line was purchased from the American Type Culture Collection (ATCC® HB-8065™). The cells were cultured in Minimum Essential Medium Eagle (MEME) (Sigma–Aldrich Co. (St. Louis, MO, USA)). Normal murine embryonic fibroblasts, Balb/c 3T3 clone A31 cell line (gift from Department of Swine Diseases of the National Veterinary Research Institute in Pulawy) was cultured in Dulbecco’s Modified Eagle’s Medium (DMEM) (Invitrogen Corporations (Paisley, UK)). The media were supplemented with 10% BCS (Balb/c 3T3), 10% FBS (HepG2), 1% L-glutamine, and 1% antibiotic solution. The cells were maintained in 75 cm^2 cell culture flasks in humidified incubator at 37 °C, in an atmosphere of 5% CO2. The medium was refreshed every two or three days and the cells were trypsinized by 0.25% trypsin–0.02% EDTA after reaching 70–80% confluence. The initial cell viability was determined with the trypan blue exclusion test. Single cell suspensions were prepared and adjusted to a density of 2 × 10^5 cell/mL (HepG2) and 1 × 10^5 cell/mL (Balb/c 3T3). The cell suspension was transferred to 96-well plates (100 µL/well) and incubated for 24 h before exposure to the studied drugs.
(§2) The concentration ranges of the drugs were chosen according to their solubility and their plasma level. Each drug was dissolved in DMSO. The final concentration of DMSO was 0.1% or 0.2% in the medium for both samples and corresponding controls. […] All drug solutions in medium were freshly prepared and protected from light. SAL was tested in seven concentrations from 0.39 to 25 µg/mL. […] The cytotoxicity was assessed after 24 and 48 h of exposure of cell lines or after 12 and 24 h exposure of PHH. […]
(§3) The assay, based on staining of living cells by neutral red (NR), was performed according to the protocol described by Borenfreund and Puerner. […] After 10 min of shaking, the absorbance of the dissolved NR was measured at 540 nm using a blank as a reference. Cytotoxicity was expressed as a percentage of the negative control (0.1% or 0.2% DMSO).

[3] = tested on: Balb/c 3T3 cells; assay: NRU assay in Balb/c 3T3; assay type: cell-based, mouse; conditions: for EC50: Mus musculus, read-out: EC50 (effective concentration)
Description: as §1, §2, §3

[4] = tested on: Balb/c 3T3 cells; assay: LDH leakage assay in Balb/c 3T3; assay type: cell-based; conditions: Mus musculus, BALB/c3T3, Balb/c 3T3, LDH, mean ± SEM, n = 3, read-out: EC50 (effective concentration)
Description: as §1, with “The medium was refreshed every two or three days and the cells were trypsinized by 0.25% trypsin–0.02% EDTA after reaching 70–80% confluence.” left out, “Single cell suspensions were prepared and adjusted to a density of 2 × 10^5 cell/mL (HepG2) and 1 × 10^5 cell/mL (Balb/c 3T3). The cell suspension was transferred to 96-well plates (100 µL/well) and incubated for 24 h before exposure to the studied drugs.” left out
The concentration ranges of the drugs were chosen according to their solubility and their plasma level. […] The cytotoxicity was assessed after 24 and 48 h of exposure of cell lines or after 12 and 24 h exposure of PHH. […]
The integrity of the plasma membrane was assessed through the test of lactate dehydrogenase (LDH) release, which was monitored using a commercially available Cytotoxicity Detection Kit (LDH) (Roche Diagnostics, Basel, Switzerland). […] The absorbance was measured at 492 nm in a microplate reader using a blank as a reference.

[5] = tested on: PHH; assay: Cytotoxicity battery (MTT, NRU, TPC, LDH) in PHH; assay type: cell-based, human; conditions: well tolerated at lower concentrations
Description: as §2, with “µg/mL. Tiamulin was added in two concentrations (1 and 10 µg/mL) or just one concentration (1 µg/mL) to cell lines or human hepatocytes, respectively. Prednisolone was tested in one concentration—1 µg/mL independent of the type of cells.” for “µg/mL.”
(§4) The metabolic activity of living cells was assessed by measuring the activity of dehydrogenases. […] The plate was shaken for 15 min at room temperature and transferred to a microplate reader to measure the absorbance at 570 nm, using a blank as a reference. Cytotoxicity was expressed as a percentage of the negative control (0.1% or 0.2% DMSO).
(§5) The assay, based on staining of living cells by neutral red (NR), was performed according to the protocol described by Borenfreund and Puerner. […] After 10 min of shaking, the absorbance of the dissolved NR was measured at 540 nm using a blank as a reference. […]

[6] = Cytotoxicity battery in fibroblasts; assay type: cell-based; conditions: mouse, Balb/c 3T3 fibroblasts, inhibiting lysosomal and mitochondrial activity and synthesis of cellular proteins, read-out: cytotoxic concentrations
Description: as §2, with “µg/mL. Tiamulin was added in two concentrations (1 and 10 µg/mL) or just one concentration (1 µg/mL) to cell lines or human hepatocytes, respectively. Prednisolone was tested in one concentration—1 µg/mL independent of the type of cells.” for “µg/mL.”
as §4, §5

[7] = rat, in vivo; cited from earlier work
[8] = in vivo; cited from earlier work

CC[C@@H](C(=O)[C@@H](C)[C@@H](O)[C@H](C)[C@@H]1O[C@@H]([C@@H](CC)C(=O)O)CC[C@@H]1C)[C@H]1O[C@]2(C=C[C@@H](O)[C@]3(CC[C@@](C)([C@H]4CC[C@](O)(CC)[C@H](C)O4)O3)O2)[C@H](C)C[C@@H]1C [SAL, salinomycin]
EC50 ([1]; 12 h exposure): > 25 µg/mL | EC50 ([1]; 24 h exposure): > 25 µg/mL | lowest concentration with significant effect on lysosomal activity ([2]; HepG2, 24 h, SAL alone or in both drug combinations (Figure S2)): 0.39 µg/mL | EC50 ([2]; HepG2, 24 h): 0.6 ± 0.2 µg/mL | EC50 ([2]; HepG2, 48 h): < 0.39 µg/mL | lowest concentration with significant effect on lysosomal activity ([3]; Balb/c 3T3, 24 h, SAL alone or in both drug combinations (Figure S3)): 0.39 µg/mL | EC50 ([3]; BALB/c3T3, 24 h): 0.6 ± 0.2 µg/mL | EC50 ([3]; BALB/c3T3, 48 h): < 0.39 µg/mL | EC50 ([4]; 24 h exposure): > 25 µg/mL | EC50 ([4]; 48 h exposure): 23.1 ± 0.8 µg/mL | concentrations exerting toxic effects [5]: > 10000 ng/mL | EC50 [6]: 0.6 to 10 µg/mL | unchanged SAL in excreta, share of administered dose [7]: 2% | unchanged SAL in excreta, share of administered dose [8]: 2%
